{
  "source": "patent US9504746B2",
  "about": "“Pharmaceutical compositions of 4-(3-chloro-4-(cyclopropylaminocarbonyl)aminophenoxy)-7-methoxy-6-quinolinecarboxamide” (Eisai R&D Management Co., Ltd., priority 2004, dated 2016)",
  "data": [
    {"assay": "pH of 5% (w/w) aqueous solution or suspension of additive", "type": "physicochemical", "conditions": "5% (w/w) aqueous solution or suspension of the additive itself", "values": [
      {"compound": "NCC(=O)O", "note": "[Glycine]", "pH value of 5% (w/w) aqueous solution or suspension": 6.17},
      {"compound": "O=P([O-])([O-])O.[Na+].[Na+]", "note": "[Na2HPO4, Disodium hydrogenphosphate]", "pH value of 5% (w/w) aqueous solution or suspension": 9.26},
      {"compound": "[Na+].[OH-]", "note": "[NaOH, Sodium hydroxide]", "pH value of 5% (w/w) aqueous solution or suspension": 13.56},
      {"compound": "O=C([O-])O.[Na+]", "note": "[NaHCO3, Sodium hydrogencarbonate]", "pH value of 5% (w/w) aqueous solution or suspension": 8.15},
      {"compound": "[O]=[Mg]", "note": "[MgO, Magnesium oxide]", "pH value of 5% (w/w) aqueous solution or suspension": 10.63},
      {"compound": "CC(=O)[O-].[Na+]", "note": "[Sodium acetate]", "pH value of 5% (w/w) aqueous solution or suspension": 8.46},
      {"compound": "O=P([O-])([O-])O.[K+].[K+]", "note": "[Example K2HPO4, Dipotassium hydrogenphosphate]", "pH value of 5% (w/w) aqueous solution or suspension": 9.11},
      {"compound": "O=C([O-])[O-].[Na+].[Na+]", "note": "[Na2CO3, Sodium carbonate]", "pH value of 5% (w/w) aqueous solution or suspension": 11.45},
      {"compound": "O=C([O-])CC(O)(CC(=O)[O-])C(=O)[O-].[Na+].[Na+].[Na+]", "note": "[Sodium citrate]", "pH value of 5% (w/w) aqueous solution or suspension": 8.22},
      {"compound": "O=C1O[C@H](CO)[C@@H](O)[C@H](O)[C@H]1O", "note": "[δ-Gluconolactone]", "pH value of 5% (w/w) aqueous solution or suspension": 2.40}
    ]}
  ]
}
